Measurements from ChEMBL document CHEMBL1212839 (J Med Chem, 2010).

Tests used:
[1] = target: Mu-type opioid receptor (Cavia porcellus) (UniProt P97266); settings: Ileum, 1 uM
Substance-P receptor = Substance-P receptor (Homo sapiens, UniProt P25103); assay: Displacement of [3H]substance P frome human NK1 receptor
Mu-type opioid receptor [2] = target: T1, Mu-type opioid receptor (Rattus norvegicus, UniProt P33535); assay: Displacement of [3H]DPDPE from rat mu opioid receptor
[3] = target: T2, Delta-type opioid receptor (Homo sapiens, UniProt P41143); assay: Displacement of [3H]DPDPE from human delta opioid receptor
[4] = target: T2, Delta-type opioid receptor; assay: Agonist activity at human opioid delta receptor expressed in mouse HN9.10 cells assessed as [35S]GTPgammaS binding; format: functional, cell-based
Mu-type opioid receptor [5] = target: T1, Mu-type opioid receptor; assay: Agonist activity at rat mu opioid receptor expressed in mouse HN9.10 cells assessed as [35S]GTPgammaS binding; format: functional, cell-based
[6] = target: Mu-type opioid receptor (Rattus norvegicus) (UniProt P33535); assay: Agonist activity at rat mu opioid receptor expressed in mouse HN9.10 cells assessed as [35S]GTPgammaS binding relative to control; format: functional, cell-based
[7] = target: T3, Delta-type opioid receptor (Mus musculus, UniProt P32300)
[8] = target: Substance-P receptor (Cavia porcellus) (UniProt P30547); settings: Ileum
[9] = target: T3, Delta-type opioid receptor; remark: listed apart in the source

T2 sequence (P41143 whole entry): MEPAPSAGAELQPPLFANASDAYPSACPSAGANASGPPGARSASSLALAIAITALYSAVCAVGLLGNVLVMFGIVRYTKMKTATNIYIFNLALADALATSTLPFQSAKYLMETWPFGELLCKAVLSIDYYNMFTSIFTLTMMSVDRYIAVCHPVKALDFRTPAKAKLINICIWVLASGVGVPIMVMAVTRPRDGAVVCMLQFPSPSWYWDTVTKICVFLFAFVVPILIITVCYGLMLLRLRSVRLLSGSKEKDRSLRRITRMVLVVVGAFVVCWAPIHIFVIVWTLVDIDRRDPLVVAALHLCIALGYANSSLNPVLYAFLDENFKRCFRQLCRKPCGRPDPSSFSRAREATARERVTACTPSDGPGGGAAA
T1 sequence (P33535 whole entry): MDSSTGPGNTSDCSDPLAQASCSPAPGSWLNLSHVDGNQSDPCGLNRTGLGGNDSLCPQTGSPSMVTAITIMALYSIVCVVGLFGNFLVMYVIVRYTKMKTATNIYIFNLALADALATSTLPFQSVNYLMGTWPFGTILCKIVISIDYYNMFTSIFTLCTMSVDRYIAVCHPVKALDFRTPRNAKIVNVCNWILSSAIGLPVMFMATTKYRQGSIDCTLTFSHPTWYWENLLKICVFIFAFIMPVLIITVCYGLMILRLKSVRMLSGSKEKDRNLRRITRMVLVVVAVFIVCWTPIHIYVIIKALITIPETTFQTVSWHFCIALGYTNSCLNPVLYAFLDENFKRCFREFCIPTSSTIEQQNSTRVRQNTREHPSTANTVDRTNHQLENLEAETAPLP
Mu-type opioid receptor (Cavia porcellus), sequence (P97266 whole entry): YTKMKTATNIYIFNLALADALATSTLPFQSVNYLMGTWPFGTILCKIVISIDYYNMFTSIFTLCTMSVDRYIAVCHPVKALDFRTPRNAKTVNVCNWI
Substance-P receptor, sequence (P25103 whole entry): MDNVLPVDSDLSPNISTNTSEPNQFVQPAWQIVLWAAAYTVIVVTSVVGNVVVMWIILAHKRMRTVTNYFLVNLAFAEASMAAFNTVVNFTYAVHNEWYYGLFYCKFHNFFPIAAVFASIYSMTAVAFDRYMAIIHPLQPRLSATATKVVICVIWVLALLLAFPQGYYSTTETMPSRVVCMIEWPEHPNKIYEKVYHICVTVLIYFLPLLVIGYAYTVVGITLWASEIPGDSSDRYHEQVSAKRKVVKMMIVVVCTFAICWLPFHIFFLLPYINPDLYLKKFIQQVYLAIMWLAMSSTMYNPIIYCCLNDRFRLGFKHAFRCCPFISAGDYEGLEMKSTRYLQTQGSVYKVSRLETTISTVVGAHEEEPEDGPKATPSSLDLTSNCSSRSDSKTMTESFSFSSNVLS
Substance-P receptor (Cavia porcellus), sequence (P30547 whole entry): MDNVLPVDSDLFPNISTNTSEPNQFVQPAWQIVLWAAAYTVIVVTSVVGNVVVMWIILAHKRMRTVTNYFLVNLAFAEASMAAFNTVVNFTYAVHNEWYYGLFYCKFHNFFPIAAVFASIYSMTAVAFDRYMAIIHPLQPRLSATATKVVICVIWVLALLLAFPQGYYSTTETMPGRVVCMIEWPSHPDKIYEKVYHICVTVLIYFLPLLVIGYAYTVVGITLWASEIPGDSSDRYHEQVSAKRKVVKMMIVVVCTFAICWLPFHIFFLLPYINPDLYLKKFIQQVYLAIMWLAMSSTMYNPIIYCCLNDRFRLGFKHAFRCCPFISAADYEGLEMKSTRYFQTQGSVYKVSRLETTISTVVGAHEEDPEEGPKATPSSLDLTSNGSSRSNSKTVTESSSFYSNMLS
Mu-type opioid receptor (Rattus norvegicus), sequence (P33535 whole entry): as the sequence (P33535 whole entry) above
T3 sequence (P32300 whole entry): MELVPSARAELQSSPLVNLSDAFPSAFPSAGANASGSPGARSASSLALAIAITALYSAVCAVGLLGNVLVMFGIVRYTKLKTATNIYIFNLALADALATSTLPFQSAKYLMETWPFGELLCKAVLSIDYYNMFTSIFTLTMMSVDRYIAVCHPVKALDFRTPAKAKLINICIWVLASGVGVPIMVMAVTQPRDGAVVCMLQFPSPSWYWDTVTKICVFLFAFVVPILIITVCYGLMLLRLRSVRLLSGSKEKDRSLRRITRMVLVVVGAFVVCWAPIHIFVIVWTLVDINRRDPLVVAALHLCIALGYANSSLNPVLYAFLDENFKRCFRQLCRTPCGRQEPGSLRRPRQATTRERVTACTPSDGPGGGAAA

SMILES: CC(C)C[C@H](NC(=O)[C@@H]1CCCN1C(=O)[C@@H]1NC(=O)[C@H](Cc2ccccc2)NC(=O)CNC(=O)[C@@H](NC(=O)[C@@H](N)Cc2ccc(O)cc2)C(C)(C)SSC1(C)C)C(=O)N[C@@H](Cc1c[nH]c2ccccc12)C(=O)NCc1cc(C(F)(F)F)cc(C(F)(F)F)c1
- inhibition [1]: 26%

SMILES: CCCC[C@@H]1NC(=O)[C@H](Cc2ccccc2)NC(=O)CNC(=O)[C@@H](NC(=O)[C@@H](N)Cc2ccc(O)cc2)C(C)(C)SSC(C)(C)[C@@H](C(=O)N2CCC[C@H]2C(=O)N[C@@H](CC(C)C)C(=O)N[C@@H](Cc2c[nH]c3ccccc23)C(=O)NCc2cc(C(F)(F)F)cc(C(F)(F)F)c2)NC(=O)[C@@H]2CCCN2C1=O
- IC50 (Substance-P receptor): 4.27 nM
- Ki (Substance-P receptor): 1.9 nM
- IC50 (Mu-type opioid receptor [2]): 2040 nM
- Ki (Mu-type opioid receptor [2]): 1000 nM
- IC50 [3]: 1380 nM
- Ki [3]: 720 nM
- EC50 [4]: 120 nM
- EC50 (Mu-type opioid receptor [5]): 140 nM
- Emax [6]: 26%
- IC50 [7]: 1100 nM
- Ke [8]: 66 nM
- inhibition [1]: 7%

SMILES: CCCC[C@@H]1NC(=O)[C@H](Cc2ccccc2)NC(=O)CNC(=O)[C@@H](NC(=O)[C@@H](N)Cc2ccc(O)cc2)C(C)(C)SSC(C)(C)[C@H](C(=O)N2CCC[C@H]2C(=O)N[C@@H](CC(C)C)C(=O)N[C@@H](Cc2c[nH]c3ccccc23)C(=O)NCc2cc(C(F)(F)F)cc(C(F)(F)F)c2)NC(=O)[C@@H]2CCCN2C1=O
- Ki (Substance-P receptor): 59 nM
- pIC50 (Substance-P receptor): 6.87
- Ki (Mu-type opioid receptor [2]): 2000 nM
- pIC50 (Mu-type opioid receptor [2]): 5.43
- Ki [3]: 150 nM
- pIC50 [3]: 6.5
- EC50 [4]: 530 nM
- EC50 (Mu-type opioid receptor [5]): 2900 nM
- pEC50 (Mu-type opioid receptor [5]): 5.67
- Emax [6]: 15%
- IC50 [9]: 250 nM
- Ke [8]: 72 nM
- inhibition [1]: 6%

SMILES: CC(C)C[C@H](NC(=O)[C@@H]1CCCN1C(=O)[C@H]1NC(=O)[C@H](Cc2ccccc2)NC(=O)CNC(=O)[C@@H](NC(=O)[C@@H](N)Cc2ccc(O)cc2)C(C)(C)SSC1(C)C)C(=O)N[C@@H](Cc1c[nH]c2ccccc12)C(=O)NCc1cc(C(F)(F)F)cc(C(F)(F)F)c1
- IC50 (Substance-P receptor): 0.417 nM
- Ki (Substance-P receptor): 0.18 nM
- IC50 (Mu-type opioid receptor [2]): 4170 nM
- Ki (Mu-type opioid receptor [2]): 2100 nM
- IC50 [3]: 72.4 nM
- Ki [3]: 38 nM
- EC50 [4]: 120 nM
- EC50 (Mu-type opioid receptor [5]): 130 nM
- inhibition [1]: 0.6%

SMILES: CC(C)C[C@H](NC(=O)[C@@H]1CCCN1C(=O)[C@H]1NC(=O)[C@H](Cc2ccccc2)NC(=O)CNC(=O)[C@H](NC(=O)[C@@H](N)Cc2ccc(O)cc2)C(C)(C)SSC1(C)C)C(=O)N[C@@H](Cc1c[nH]c2ccccc12)C(=O)NCc1cc(C(F)(F)F)cc(C(F)(F)F)c1
- IC50 (Substance-P receptor): 0.0123 nM
- IC50 (Mu-type opioid receptor [2]): 4370 nM
- IC50 [3]: 3.63 nM
